Test results reported in article PMC9913752, “Proof-of-Concept Study of an Alpha-Fetoprotein-Derived Peptide for the Management of Canine Mammary Cancer” (Animals : an Open Access Journal from MDPI, 2023).
Where a SMILES comes first, the peptide text is derived from it. [ ]: non-standard residue; d: D form. Hyp = O=C(O)[C@@H]1C[C@@H](O)CN1

Experiment: Blood chemistry and hematology after single i.v. dose in dogs
Format: in vivo, dog
Parameters: Bilirubin Conjugated / WBC: unit not given here
Procedure: Monkeys (Macaca mulatta, males) were contractually available through the Animal Resource Facility at Albany Medical College. The monkeys were used to assess pharmacokinetics and tolerability, in anticipation of future human studies. For dogs and monkeys, the full panels of clinical chemistry and hematology parameters were assessed. Monkeys were housed and cared for in accordance with the Guide for the Care and Use of Laboratory Animals (National Research Council, Washington, DC, USA). They were fed a standard Old World monkey diet, enriched with fruits and vegetables and other dietary novelties.

[1] = dogs ~10 kg, 24 h after i.v. 40 mg AFPep, average from 2 dogs
[2] = dogs ~10 kg, 24 h after i.v. 40 mg AFPep, average ± range from 2 dogs, in U/L (unit assumed)
[3] = dogs ~10 kg, 24 h after i.v. 40 mg AFPep, average ± range from 2 dogs, in g/dL (unit assumed)
[4] = dogs ~10 kg, 24 h after i.v. 40 mg AFPep, average ± range from 2 dogs, in mg/dL (unit assumed)
[5] = dogs ~10 kg, 24 h after i.v. 40 mg AFPep, average ± range from 2 dogs, in mmol/L (unit assumed)

liver enzymes (4 mg/kg i.v., dogs, no anesthesia, mild manual restraint): No such elevations in liver enzymes | Bilirubin Conjugated [1]: 0 | Total Bilirubin [1]: 0.1 mg/dL | WBC (dogs ~10 kg, 24 h after i.v. 40 mg AFPep, average ± range from 2 dogs): 7.0 ± 3 | Platelet (dogs ~10 kg, 24 h after i.v. 40 mg AFPep, average ± range from 2 dogs, in 10^3/µL (unit assumed)): 274 ± 21 | RBC (dogs ~10 kg, 24 h after i.v. 40 mg AFPep, average ± range from 2 dogs, in 10^6/µL (unit assumed)): 6.9 ± 1 | HCT (dogs ~10 kg, 24 h after i.v. 40 mg AFPep, average ± range from 2 dogs, in % (unit assumed)): 46 ± 1.5 | ALP [2]: 33 ± 2 | Creatine Kinase [2]: 135 ± 2.7 | GGT [2]: 3 ± 1 | MCV (dogs ~10 kg, 24 h after i.v. 40 mg AFPep, average ± range from 2 dogs, in fL (unit assumed)): 68 ± 0.8 | Albumin [3]: 3.2 ± 0.1 | Globulin [3]: 2.6 ± 0.1 | HGB [3]: 15.9 ± 1 | Total Protein [3]: 5.8 ± 0.1 | BUN [4]: 13.2 ± 2 | Calcium [4]: 10.3 ± 0.4 | Cholesterol [4]: 171 ± 2 | Creatinine [4]: 0.7 ± 0.1 | Glucose [4]: 93 ± 9 | Phosphorous [4]: 4.6 ± 0.2 | Bicarbonate TCO2 [5]: 21 ± 1 | Chloride [5]: 112 ± 1 | Potassium [5]: 4.7 ± 0.1 | Sodium [5]: 146 ± 2 | MCH (dogs ~10 kg, 24 h after i.v. 40 mg AFPep, average ± range from 2 dogs, in pg (unit assumed)): 23.2 ± 1
SMILES: CC(C)[C@@H]1NC(=O)[C@@H]2C[C@@H](O)CN2C(=O)[C@H]([C@@H](C)O)NC(=O)[C@H](CCCCN)NC(=O)[C@H](CCC(=O)O)NC(=O)[C@H](CC(N)=O)NC(=O)CNC(=O)[C@@H]2C[C@@H](O)CN2C(=O)[C@H](CC(N)=O)NC1=O [AFPep] (cyclo(EKT[Hyp]VN[Hyp]GN))
changes to clinical chemistry and hematology values (4 mg/kg i.v., normal beagle dogs): In no case did exposure to AFPep result in significant changes | ALT [2]: 16 ± 1 | AST [2]: 20 ± 1
